Among the test systems are UO-31 renal; SK-MEL-28 melanoma; OVCAR-8 ovarian; OVCAR-3 ovarian; SNB-19 CNS; PC-3 prostate; CCRF-CEM leukemia; IGROV1 ovarian; SF-539 CNS; CAKI-1 renal.
Holding throughout (assay): growth of human tumour cells (NCI), 48 h

SMILES strings stand for the structures. “And” between values parts separate entries of the source, which are not always exact repeats. Equal entries are not always repeated.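 Each compound was tested at five concentrations against cells in 96-well plates for 48 hours. TGI marks complete inhibition of growth.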

Take `c1c2c(cc3c1OCO3)-c1cc3ccc4c(c3c[n+]1CC2)OCO4`: the TGI with UO-31 renal was greater than 12.5 µM; in the assay on SK-MEL-28 melanoma, greater than 12.5 µM; in the assay on OVCAR-8 ovarian it was 4.13 µM; with OVCAR-3 ovarian it was greater than 3.26 µM; in the assay with SNB-19 CNS, greater than 8.78 µM; in the assay on PC-3 prostate it was greater than 12.5 µM. The TGI with CCRF-CEM leukemia is greater than 12.5 µM; with IGROV1 ovarian, greater than 12.5 µM; in the assay on SF-539 CNS it was 3.12 µM; in the assay with CAKI-1 renal it was greater than 12.5 µM.
For `CCO[C@]12CCC[C@H]1[C@@H]1C(=O)c3ccccc3C(=O)C1=C(C)O2`, the TGI in the assay on UO-31 renal is greater than 100 µM; with SK-MEL-28 melanoma, greater than 100 µM; in the assay on OVCAR-8 ovarian it was greater than 100 µM; with OVCAR-3 ovarian, 50.3 µM; in the assay on SNB-19 CNS it was greater than 100 µM; with PC-3 prostate, greater than 100 µM. The TGI with CCRF-CEM leukemia, in the assay with IGROV1 ovarian, with SF-539 CNS and in the assay on CAKI-1 renal was greater than 100 µM in each case.
Turning to `CN(C)CCCN1c2ccc([N+](=O)[O-])cc2CCc2cc([N+](=O)[O-])ccc21`, the TGI in the assay on UO-31 renal was 37.4 µM and 25 µM; in the assay with SK-MEL-28 melanoma it was 30 µM and 29.3 µM; in the assay on OVCAR-8 ovarian, 29.5 µM and 30 µM; in the assay on OVCAR-3 ovarian, 30.2 µM and 30.5 µM; in the assay with SNB-19 CNS, 32 µM and 29.1 µM; in the assay on PC-3 prostate it was 31.3 µM and 27 µM. The TGI is 28.4 µM with CCRF-CEM leukemia; 28.9 µM and 29.1 µM with IGROV1 ovarian; 30.6 µM and 37.8 µM with SF-539 CNS; 29.1 µM in the assay on CAKI-1 renal.
`Cc1c2cc[n+](C)cc2c(C)c2c1oc1ccccc12`: the TGI with UO-31 renal was greater than 100 µM; with SK-MEL-28 melanoma it was 21.8 µM; in the assay with OVCAR-8 ovarian, 29.8 µM; with OVCAR-3 ovarian, 16.7 µM; in the assay with SNB-19 CNS, 4.27 µM; with PC-3 prostate it was 37.8 µM. Further, the TGI with CCRF-CEM leukemia is 45.9 µM; in the assay with IGROV1 ovarian, 52.6 µM; in the assay with SF-539 CNS, 13 µM; with CAKI-1 renal it was 98.3 µM.
In the case of `CCOP(=O)(OCC)C(Nc1cccc(F)c1)c1ccc(N(C)C)cc1` (stereo not given), the TGI in the assay with UO-31 renal, in the assay with SK-MEL-28 melanoma, in the assay on OVCAR-8 ovarian, with OVCAR-3 ovarian, with SNB-19 CNS and in the assay on PC-3 prostate was greater than 100 µM in each case. For the same compound, the TGI in the assay with CCRF-CEM leukemia, in the assay with IGROV1 ovarian, in the assay on SF-539 CNS and in the assay on CAKI-1 renal was greater than 100 µM in each case.

The values are drawn from PubChem BioAssay (NCI).
